Assay results published in ChEMBL document CHEMBL1201862, “PubChem BioAssay data set” (2004).
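Test compounds were applied to cells in 96-well plates for 48 hours at 5 doses. GI50 = concentration required for 50% inhibition of growth.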 Active and inactive are the calls of the source. No stated cut-off is given here; in the data, active = GI50 up to about 1.1 µM and inactive = higher.

Key:
Assay in all cases: DTP human tumour cell line panel, 48 h
MDA-MB-435 = system: MDA-MB-435
PC-3 = system: PC-3
MDA-MB-231 = system: MDA-MB-231
Hs-578T = system: Hs-578T
SNB-78 = system: SNB-78
DMS-273 = system: DMS-273
DLD-1 = system: DLD-1
DMS-114 = system: DMS-114

Q: Which GI50 (MDA-MB-435) does the source give for `N=C(N)NS(=O)(=O)c1ccc(Nc2c3ccccc3nc3c(C(=O)NCCO)cccc23)cc1` here?
A: Its GI50 is 0.173 µM (active).

Q: What about the GI50 (PC-3) of the same molecule?
A: The GI50 was 0.21 µM (active).

Q: And the GI50 (MDA-MB-231)?
A: The GI50 was 0.207 µM (active).

Q: What about the GI50 (Hs-578T) of the same molecule?
A: Its GI50 is 0.209 µM (active).

Q: Which GI50 (SNB-78) does the source give for `Cn1cnc([N+](=O)[O-])c1Sc1nc2cc([N+](=O)[O-])ccc2[nH]1` here?
A: Its GI50 is 24.1 µM (inactive).

Q: What about the GI50 (DMS-273) of the same molecule?
A: The GI50 was 1.73 µM (inactive).

Q: And the GI50 (DLD-1)?
A: The GI50 was 11.5 µM (inactive).

Q: `Cn1nc(C(=O)N2CC(CCl)c3c2cc(N)c2ccccc32)cc1NC(=O)Nc1cc(C(=O)N2CC(CCl)c3c2cc(N)c2ccccc32)nn1C` (stereo not drawn) was tested. Which GI50 (MDA-MB-435) did it give?
A: Its GI50 is 0.219 µM (active).

Q: And the GI50 (PC-3)?
A: Its GI50 is 0.165 µM (active).

Q: What about the GI50 (MDA-MB-231) of the same molecule?
A: The GI50 was 0.243 µM (active).

Q: How did the GI50 (DMS-114) turn out when `N#CNC1=NC(CCCC(=O)Nc2cccc([N+](=O)[O-])c2)=C(c2nc3ccccc3[nH]2)C(N)N1` (stereo not drawn) was run?
A: Its GI50 is > 100 µM (inactive).

Q: And the GI50 (DMS-273)?
A: Its GI50 is > 100 µM (inactive).

Q: What about the GI50 (DLD-1) of the same molecule?
A: The GI50 was > 100 µM (inactive).

Q: Which results are given for `CN(C)CCOc1ccc2[nH]c(C(=O)N3CC(CCl)c4c3cc(N)c3ccccc43)cc2c1` (stereo not drawn)?
A: GI50 (MDA-MB-435): < 0.01 µM (active); GI50 (PC-3): < 0.01 µM (active); GI50 (MDA-MB-231): < 0.01 µM (active); GI50 (Hs-578T): < 0.01 µM (active)

Q: How did the GI50 (MDA-MB-435) turn out when `CC(=O)c1cc(I)c(O)c2ncccc12` was run?
A: Its GI50 is 4.09 µM (inactive).

Q: What about the GI50 (PC-3) of the same molecule?
A: Its GI50 is 5.71 µM (inactive).

Q: What about the GI50 (MDA-MB-231) of the same molecule?
A: Its GI50 is 2.55 µM (inactive).

Q: And the GI50 (Hs-578T)?
A: The GI50 was > 10 µM (inactive).

Q: `O=C(NCCNCCCNC(=O)c1cc(-c2ccccc2)nc2ccccc12)c1cccc(OCc2ccccc2)c1OCc1ccccc1` was tested. Which GI50 (MDA-MB-435) did it give?
A: Its GI50 is 1.68 µM (inactive).

Q: And the GI50 (PC-3)?
A: Its GI50 is 1.67 µM (inactive).

Q: And the GI50 (MDA-MB-231)?
A: The GI50 was 1.71 µM (inactive).

Q: And the GI50 (Hs-578T)?
A: The GI50 was 2.58 µM (inactive).

Q: With `CC(C)=CCC/C(C)=C/CC/C(C)=C/CC/C(=C/CC/C(C)=C\CC/C(C)=C/CC/C(C)=C/CC/C(C)=C/Cc1cc(O)ccc1O)CO` as the molecule, how does the GI50 (MDA-MB-435) read?
A: The GI50 was 1.12 µM (active).

Q: What about the GI50 (PC-3) of the same molecule?
A: Its GI50 is 4.2 µM (inactive).

Q: And the GI50 (MDA-MB-231)?
A: Its GI50 is 27.3 µM (inactive).

Q: And the GI50 (Hs-578T)?
A: Its GI50 is 2.51 µM (inactive).

Q: How did the GI50 (MDA-MB-435) turn out when `Cc1c2c(n(CCc3ccccc3)c1C)N(C)N=C(C#N)S2(=O)=O` was run?
A: Its GI50 is > 100 µM (inactive).

Q: What about the GI50 (PC-3) of the same molecule?
A: The GI50 was > 100 µM (inactive).

Q: And the GI50 (MDA-MB-231)?
A: The GI50 was > 100 µM (inactive).

Q: `COC1=CC(=O)c2ccccc2C1(CCC=C(C)C)C1=NC(C)(C)CO1` (stereo not drawn) was tested. Which GI50 (DMS-273) did it give?
A: Its GI50 is 72.4 µM (inactive).

Q: What about the GI50 (DLD-1) of the same molecule?
A: Its GI50 is > 100 µM (inactive).

Q: `O=C(O)Cc1cccc2c(=O)c3cccc([N+](=O)[O-])c3[nH]c12` was tested. Which GI50 (MDA-MB-435) did it give?
A: The GI50 was > 100 µM (inactive).

Q: And the GI50 (PC-3)?
A: Its GI50 is > 100 µM (inactive).

Q: What about the GI50 (MDA-MB-231) of the same molecule?
A: The GI50 was > 100 µM (inactive).

Q: And the GI50 (Hs-578T)?
A: The GI50 was 36 µM (inactive).

Q: Which results are given for `CC(=O)OC(C)(C)C[N+](=O)[O-]`?
A: GI50 (DMS-114): > 100 µM (inactive); GI50 (DMS-273): > 100 µM (inactive); GI50 (DLD-1): > 100 µM (inactive)

Q: What does the source list for `CN(C)c1nc2sc3c(c2c(=O)o1)CCCC3`?
A: GI50 (MDA-MB-435): 31.5 µM (inactive); GI50 (PC-3): 34.4 µM (inactive); GI50 (MDA-MB-231): 41.5 µM (inactive); GI50 (Hs-578T): 16.7 µM (inactive)

Q: What does the source list for `Cc1cc(NC2=NCCO2)c2c(c1C)CCCC2`?
A: GI50 (MDA-MB-435): 14.4 µM (inactive); GI50 (MDA-MB-231): 24 µM (inactive); GI50 (Hs-578T): 10.8 µM (inactive)

Q: For `O=S(=O)(OI(O)CC(F)(F)F)C(F)(F)F`, which GI50 (MDA-MB-435) is on record?
A: Its GI50 is > 100 µM (inactive).

Q: What about the GI50 (PC-3) of the same molecule?
A: Its GI50 is > 100 µM (inactive).

Q: And the GI50 (MDA-MB-231)?
A: The GI50 was > 100 µM (inactive).

Q: What does the source list for `CC(C(=O)C(C)O[Si](c1ccccc1)(c1ccccc1)C(C)(C)C)=P(c1ccccc1)(c1ccccc1)c1ccccc1` (stereo not drawn)?
A: GI50 (SNB-78): 3.48 µM (inactive); GI50 (DMS-114): 2.39 µM (inactive); GI50 (DLD-1): 4.58 µM (inactive)

Q: Which GI50 (MDA-MB-435) does the source give for `Brc1sc(Br)c2c1[C@H](Br)C[C@@H]2Br` here?
A: The GI50 was 35.5 µM (inactive).

Q: And the GI50 (MDA-MB-231)?
A: Its GI50 is 31.1 µM (inactive).

Q: And the GI50 (Hs-578T)?
A: Its GI50 is 26.3 µM (inactive).

Q: How did the GI50 (MDA-MB-435) turn out when `CC1CCC2(CC1)NC1=C(CC(C)CC1)C1=C2CC(C)CC1` (stereo not drawn) was run?
A: The GI50 was > 10 µM (inactive).

Q: And the GI50 (PC-3)?
A: Its GI50 is 16.1 µM (inactive).

Q: And the GI50 (MDA-MB-231)?
A: Its GI50 is 20.5 µM (inactive).

Q: What about the GI50 (Hs-578T) of the same molecule?
A: The GI50 was 26.9 µM (inactive).

Q: `CC(=O)NC(C)(C)C1CC=C(C)CC1` (stereo not drawn) was tested. Which GI50 (MDA-MB-435) did it give?
A: The GI50 was > 100 µM (inactive).

Q: And the GI50 (PC-3)?
A: Its GI50 is > 100 µM (inactive).

Q: And the GI50 (MDA-MB-231)?
A: Its GI50 is > 100 µM (inactive).

Q: And the GI50 (Hs-578T)?
A: Its GI50 is > 100 µM (inactive).

Q: What does the source list for `O=C(O)c1nn(-c2ccccc2)nc1-c1nn(-c2ccccc2)nc1C(=O)O`?
A: GI50 (MDA-MB-435): > 100 µM (inactive); GI50 (PC-3): > 100 µM (inactive); GI50 (MDA-MB-231): > 100 µM (inactive); GI50 (Hs-578T): > 100 µM (inactive)

Q: Which GI50 (MDA-MB-435) does the source give for `COc1cc(/C=C2\CCC(C)C3=C2N=c2s/c(=C/c4ccc(Cl)cc4)c(=O)n2C3c2cc(OC)c(OC)c(OC)c2)cc(OC)c1OC` (stereo not drawn) here?
A: Its GI50 is > 100 µM (inactive).

Q: And the GI50 (PC-3)?
A: The GI50 was > 100 µM (inactive).

Q: And the GI50 (MDA-MB-231)?
A: Its GI50 is > 100 µM (inactive).

Q: And the GI50 (Hs-578T)?
A: Its GI50 is > 100 µM (inactive).

Q: `CC(=O)O[C@H]1[C@H](OC(=O)CC(C)(O)CC(=O)O)C[C@]2(C)C3=C(CCC2C1(C)C)[C@]1(C)CC[C@H]([C@H]2CC[C@H](C(C)(C)O)OC2O)[C@@]1(C)[C@@H](O)C3` (stereo partly drawn) was tested. Which GI50 (MDA-MB-435) did it give?
A: The GI50 was 19.1 µM (inactive).

Q: And the GI50 (PC-3)?
A: Its GI50 is 18.3 µM (inactive).

Q: What about the GI50 (MDA-MB-231) of the same molecule?
A: Its GI50 is 14.9 µM (inactive).

Q: And the GI50 (Hs-578T)?
A: Its GI50 is 16 µM (inactive).

Q: What does the source list for `Cc1ccc2c(c1)/C(=N/Nc1ccccc1[N+](=O)[O-])C(=O)N2`?
A: GI50 (MDA-MB-435): > 100 µM (inactive); GI50 (PC-3): 24.8 µM (inactive); GI50 (MDA-MB-231): 1.61 µM (inactive); GI50 (Hs-578T): 3.93 µM (inactive)

Q: Which results are given for `CN(C)CCCCN1c2ccccc2Sc2ccc(N=[N+]=[N-])cc21`?
A: GI50 (MDA-MB-435): 2.06 µM (inactive); GI50 (PC-3): 3.15 µM (inactive); GI50 (MDA-MB-231): 7.28 µM (inactive); GI50 (Hs-578T): 5.22 µM (inactive)

Q: With `CC(C)(C)C1=NO[C@H]2[C@@H](NC(=O)c3ccccc3)CC[C@@H]12` as the molecule, how does the GI50 (SNB-78) read?
A: Its GI50 is > 100 µM (inactive).

Q: What about the GI50 (DMS-114) of the same molecule?
A: Its GI50 is > 100 µM (inactive).

Q: And the GI50 (DLD-1)?
A: Its GI50 is > 100 µM (inactive).

Q: What does the source list for `CC1(C)N=C(C2CCCN2C(=O)OCc2ccccc2)OC1=O` (stereo not drawn)?
A: GI50 (MDA-MB-435): > 100 µM (inactive); GI50 (PC-3): > 100 µM (inactive); GI50 (MDA-MB-231): > 100 µM (inactive); GI50 (Hs-578T): > 100 µM (inactive)

Q: Which GI50 (MDA-MB-435) does the source give for `O=C(O)C1C(Br)(c2ccccc2)C1(Br)c1ccccc1` (stereo not drawn) here?
A: The GI50 was 41.2 µM (inactive).

Q: And the GI50 (PC-3)?
A: Its GI50 is 36.5 µM (inactive).

Q: And the GI50 (MDA-MB-231)?
A: Its GI50 is 39.7 µM (inactive).

Q: What about the GI50 (Hs-578T) of the same molecule?
A: The GI50 was 37.8 µM (inactive).

Q: `[N-]=[N+]=NCc1cccc(Nc2cc(=O)[nH]c(=O)[nH]2)c1` was tested. Which GI50 (MDA-MB-435) did it give?
A: The GI50 was > 100 µM (inactive).

Q: What about the GI50 (Hs-578T) of the same molecule?
A: The GI50 was > 100 µM (inactive).
